Source: patent EP0840781B1, “METHODS AND DEVICES FOR THE REMOVAL OF PSORALENS FROM BLOOD PRODUCTS” (Cerus Corporation, priority 1995, dated 1996)
Read-outs that look alike come from different tables or passages of the source.

Columns and labels:
R17 = test: r-17 bacteriophage assay: R17 treated with compound and UVA, remaining titer by plaque count on Hfr 3000 bacteria; assay type: cell-based; conditions: for R17 inactivation efficiency compared with AMT: varying concentration (Tables 7 and 8, FIGS. 6-10)
Experimental: In the r-17 assay, the bacteriophage was placed in a solution with each compound tested and was then irradiated. The ability of the phage to subsequently infect bacteria and inhibit their growth was measured. The bacteriophage was selected for its relatively accessible nucleic acid such that the culture growth inhibition would accurately reflect nucleic acid damage by the test compounds. The bacteriophage assay for nucleic acid binding to test compounds offers a safe and inexpensive procedure to identify compounds likely to display efficient pathogen inactivation. Previous experiments support that the r-17 assay accurately measures HIV-1 sensitivity to similar compounds. […] Modified Eagles Medium (DMEM) to a final phage concentration of 10^9/mL. An aliquot (0.5 mL) was transferred to a 1.5 mL snap-top polyethylene tube. […] Louis, MO). The tubes were placed in a light device as described in EXAMPLE 1 and irradiated for between 1 and 10 minutes. […] To make the dilutions. a 0.100 mL aliquot of the irradiated solution of phage and test compound was added to the first dilution tube of 0.4 mL of media then 0.020 mL of this solution was added to the second tube of 0.5 mL medium (1:25). […] After the top agar hardened, the plates were incubated at 37 °C overnight. The plaque forming units were then counted the following morning and the titer of the phage remaining after phototreatment was calculated based on the dilution factors. The following controls were run: the "phage only" in which phage was not treated with test compound and not irradiated (listed as "starting titer" in the tables below); the "UV only" in which the phage was irradiated in the absence of test compound; and the "dark" control in which the phage/test compound solution was not irradiated before it was diluted and plated. Compounds described herein were also tested at a constant concentration for varying doses of UV light. […] The compound tested was added at the desired concentration and the samples were vortexed. […] Between each 1.0 J/cm^2 intervals, 100µL was removed from each sample and placed in the first corresponding dilution tube, then five sequential dilutions were performed for each compound tested, at all 3 irradiation doses, as described above in this example. […] The contents of each tube was poured into its own LB plate and the plates were incubated overnight at 37 °C. Plaques were counted by visual inspection the following morning.

Pseudomonas = test: Bacterial inactivation by compound plus UVA, colony forming units; assay type: cell-based; conditions: 16 µM; 5 J/cm^2 irradiation; starting titer 6.5 logs
Experimental: In this example bacterial inactivation by the photoreactive nucleic acid binding compounds described herein was measured as a function of the ability of the bacteria to subsequently replicate. A gram negative bacteria was chosen as representative of the more difficult bacterial strains to inactivate.
The bacteria a strain of Pseudomonas, was inoculated into LB with a sterile loop and grown overnight in a shaker at 37°C. Based on the approximation that one OD at 610 nm is equivalent to 5 x 10^8 colony forming units (cfu)/mL, a 1:10 dilution of the culture was measured on a spectrophotometer. (manufactured by Shimatsu). The bacterial culture was added to a solution of 15% fetal bovine serum in DMEM to a final bacteria concentration of approximately 10^6/mL. An aliquot (0.8 mL) was transferred to a 1.5 mL snap-top polyethylene tube. An aliquot (0.004-0.040 mL) of the test compound stock solution prepared in water, ethanol or dimethylsulfoxide at 0.80-8.0 mM was added to the tube. Compounds were tested at a concentration of 16 µM. The tubes were placed in a light device as described in EXAMPLE I and irradiated with 1.3 J/cm^2, 1.2 J/cm^2, and finally 2.5 J/cm^2, for a total of 5 J/cm^2. 150 µL were removed for testing after each pulse period. Sterile 13 mL dilution tubes were prepared; each test compound required one tube with 0.4 mL of LB broth and four tubes containing 0.5 mL of LB broth. To make the dilutions, a 0.050 mL aliquot of the irradiated solution of phage and test compound was added to the first dilution tube of […] of media then 0.050 mL of this solution was added to the second tube of 0.5 mL medium (1:10). The second solution was then diluted serially (1:10) into the remaining tubes. 100 µL of the original sample and each dilution are plated separately onto LB agar plates and incubated at 37 °C overnight. The colony forming units were then counted the following morning and the titer of the phage remaining after phototreatment was calculated based on the dilution factors.
The following controls were run: the "bacteria only" in which bacteria was not treated with test compound and not irradiated (listed as "starting titer" in the tables below); the "UV only" in which the bacteria was irradiated in the absence of test compound. Dark controls were not performed here for reasons set forth in Example 12 above.

Male Balb/c mice = conditions: for bone marrow toxicity or micronucleus formation: experiment repeated using increased dose levels
Experimental: Male Balb/c mice were then injected with 0.1 ml of a compound solution via the tail vein. At least 3 mice were injected per dose level Saline only was used as a negative control. For a positive control, cyclophosphamide (cycloPP) was administered at a dose of 30 mg/kg. In the experimental group, the injections were repeated once per day for four days. In the positive control group, the sample was administered only once, on day three. On day 5, several microliters of blood were withdrawn from each subject and smeared on a glass slide. Cells were fixed in absolute methanol and stored in a slide rack.
For analysis, cells were stained with acridine orange and visualized under a fluorescence microscope by counting: (i) the number of reticulocytes per 5000 erythrocytes; and (ii) the number of micronucleated reticulocytes per 1000 reticulocytes. Reticulocytes were distinguished by their red fluorescence due to the presence of RNA. Micronuclei were distinguished by their green fluorescence due to the presence of DNA. The percentage of reticulocytes (%PCE) was then calculated. A decrease in the frequency of erythrocytes, represented by an increase in the percentage of reticulocytes, is an indication of bone marrow toxicity. The percentage of reticulocytes with micronuclei (%PCE with MN) was also calculated. An increase in %PCE with MN is a measure of elastogenicity.
After initial results were determined, the experiment was repeated using increased dose levels, until: (i) Micronucleus formation was seen; or (ii). Bone marrow toxicity was observed; or (iii) The lethal dose was reached; or (iv) A dose of 5 g/kg was administered.

[1] = 8 µM, 1 Minute Irradiation, Starting Titer Approx. 7.2 Logs (Table 7)
[2] = 16 µM, 1 Minute Irradiation, Starting Titer Approx. 7.1 Logs (Table 9)
[3] = 16 µM, 1 Minute Irradiation, Starting Titer Approx. 7.2 Logs (Table 7)
[4] = 16 µM, 1 Minute irradiation = 1.2 J/cm^2, Starting Titer Approx. 7.1 Logs (Table 8)
[5] = 32 µM, 1 Minute Irradiation, Starting Titer Approx. 7.2 Logs (Table 7)
[6] = 32 µM, 1 Minute irradiation = 1.2 J/cm^2, Starting Titer Approx. 7.1 Logs (Table 8)
[7] = male, Balb/c, mouse, in vivo, 25 mg/kg, 5 day
[8] = male, Balb/c, mouse, in vivo, 40 mg/kg, 5 day

SMILES | R17 Log Kill (R17; [1]) | R17 Log Kill (R17; [2]) | R17 Log Kill (R17; [3]) | R17 Log Kill (R17; [4]) | R17 Log Kill (R17; 32 µM, 1 Minute Irradiation, Starting Titer Approx. 7.1 Logs (Table 9)) | R17 Log Kill (R17; [5]) | R17 log kill (32 µM) (R17; 32 µM, 1 Minute Irradiation, Starting Titer Approx. 7.5 Logs (Table 6)) | R17 Log Kill (R17; [6]) | log kill of bacteria (Pseudomonas) (Pseudomonas) | R17 inactivation efficiency compared with AMT (R17) | bone marrow toxicity or micronucleus formation (Male Balb/c mice) | PCE + MN (%) (Male Balb/c mice; [7]) | PCE/RBC (%) (Male Balb/c mice; [7]) | PCE + MN (%) (Male Balb/c mice; [8]) | PCE/RBC (%) (Male Balb/c mice; [8]) | R17 Log Kill (R17; 8 µM, 1 Minute Irradiation, Starting Titer Approx. 7.1 Logs (Table 9)) | R17 Log Kill (R17; 64 µM, 1 Minute irradiation = 1.2 J/cm^2, Starting Titer Approx. 7.1 Logs (Table 8)) | efficiency at inactivating R17 compared with AMT (R17; constant concentration, varying doses of UV light 1.0-3.0 J/cm^2 (FIGS. 11-17)) | PCE/RBC (%) (Male Balb/c mice; Dose 45 mg/kg, tail vein, once per day for four days, blood on day 5)
Cc1oc2c(C)c3oc(=O)cc(C)c3cc2c1CN [AMT, 4'-Aminomethyl-4,5',8-trimethylpsoralen, reference compound] | 2.7 | >6 | 4.6 | 4.5 | >6 | >6.2 | >6.7 | 4.8 | 5.2 logs |  |  |  |  |  |  |  |  |  | 
Cc1oc2c(C)c3oc(=O)cc(C)c3cc2c1COCCN [Compound 2, 4'-(4-amino-2-oxa)butyl-4,5',8-trimethylpsoralen] | 3.8 |  | >6.2 |  |  | >6.2 |  |  | > 5.5 logs | significantly higher inactivation efficiency than does AMT | the acutely lethal dose was reached before there were any signs of bone marrow toxicity or micronucleus formation | 0.25 ± 0.11% | 3.46 ± 0.32% | 0.20 ± 0.14% | 3.08 ± 0.82% |  |  |  | 
Cc1oc2c(C)c3oc(=O)cc(C)c3cc2c1CNCCCCN [Compound 6, 4'-(6-amino-2-aza)hexyl4,5',8-trimethylpsoralen] |  | >6 |  | 6.1 |  |  |  | >6.1 | > 5.5 logs | significantly higher inactivation efficiency than does AMT | the acutely lethal dose was reached before there were any signs of bone marrow toxicity or micronucleus formation |  |  |  |  | >6 | >6.1 | more efficient at inactivating R17 than was AMT | 3.79 ± 10.41%
Cc1cc(=O)oc2c(C)c3oc(COCCN)c(C)c3cc12 [Compound 18, 5'-(4-amino-2-oxa)butyl-4,4',8-trimethylpsoralen] |  |  |  |  |  |  |  |  |  |  | the acutely lethal dose was reached before there were any signs of bone marrow toxicity or micronucleus formation |  |  |  |  |  |  |  | 
